The values that follow come from patent US20260176313A1, “TGF-BETA-1 VACCINE” (IO BIOTECH APS, priority 2022, published 2026).

In test [1] the test system is PBMCs from healthy donors. As to the kind of experiment: In vitro IFNγ ELISPOT screening for immune responses to TGFb-1 peptides. The conditions noted are these: for Positive Donors (out of 14): donors with significant response: Fisher test <0.01, ratio peptide:control >2, background subtracted spots >25; for Median Spots: median of background subtracted average spots for each donor across all 14 donors, 7 days after peptide stimulation. Format: cell-based, human. As for the experimental part:
FIG. 6. IFNγ ELISPOT identifies strong and frequent immune responses. Immune responses to TGFb-1 peptides were identified in PBMCs from 14 healthy donors. PBMCs were stimulated with the indicated TGFb-1 peptides and responses were analyzed after seven days by IFNγ ELISPOT. Significant responses (*) were defined by a Fisher exact P value<0.01, a ratio of peptide to control spots>2, and background subtracted spots>25. Peptides that elicited responses in the greatest number of donors were subsequently tested for the specificity of the response to TGFb-1.
(§1) For in vitro ELISPOT, peripheral blood […] cells (PBMCs) from healthy donors were pulsed with 20 μM of TGFb-derived peptides and 20 U/ml IL-2 in 24-well plates for 7 days before being used in an ELISPOT assay. The cells were placed in 96-well nitrocellulose ELISPOT plates (MultiScreen IP Filter Plate, MSIPN4W50; Millipore) pre-coated with interferon gamma (IFNγ) capture antibody (Mabtech). TGFb peptides are added to a final concentration of 5 μM, control stimulation (DMSO) added to control wells and plates are incubated at 37° C. for 16-20 hours. After the incubation the cells were washed off and secondary biotinylated Ab (Mabtech) was added for 2 hours at room temperature. Unbound secondary antibody was washed off and streptavidin conjugated alkaline phosphatase (AP) (Mabtech) was added for 1 hour at room temperature. Unbound conjugated enzyme was washed off and the assay was developed by adding BCIP/NBT substrate (Mabtech). Developed ELISPOT plates were analysed on CTL ImmunoSpot S6 Ultimate-V analyzer using Immunospot software v5.1.
(§2) In order to identify whether the low homology peptides selected based on sequence alignment were able to elicit immune responses in humans, the IFNγ ELISPOT assay was used. PBMCs from a total of 14 healthy donors were used to screen for immune responses. PBMCs were exposed to each peptide individually to induce a peptide-specific immune response and proliferation of peptide-specific T cells. Seven days later, the frequency of peptide-specific T cells were assayed by IFNγ ELISPOT. IFNγ ELISPOT identified several peptides that elicited strong (number of spots) and frequent (number of donors) immune responses, as shown in FIG. 6. Five peptides were selected on this basis (see Table 4). These five peptides were subsequently assayed for TGFb-1-selectivity by assaying for cross-reactive immune responses to TGFb-2 and TGFb-3 peptides in the IFNγ ELISPOT assay, as shown in FIG. 7 and FIG. 8.

Test [2] has as its system PBMCs from healthy donors. As to the kind of experiment: IFNγ ELISPOT recall assay for cross-reactive responses to homologous TGFb-2 and TGFb-3 peptides. The class given is cell-based, human. As to conditions: for TGFb-1 selectivity / cross-reactivity of IFNγ ELISPOT immune response to homologous TGFb-2 and TGFb-3 peptides: donor PBMCs stimulated with TGFb-1 peptide, recall after seven days. As to the method: FIG. 7A-B. IFNγ ELISPOT to identify TGFb-1-selective immune responses. Donor PBMCs were stimulated with the indicated TGFb-1 peptides (Pep01-1, Pep04-1, Pep05-1, Pep08-1, Pep09-1 and Pep12-1) and after seven days were tested for a recall response by IFNγ ELISPOT assay using the same TGFb-1 peptide, or homologous TGFb-2 peptide (i.e. Pep01-2, Pep04-2, Pep05-2, Pep08-2, Pep09-2 or Pep12-2) or TGFb-3 peptide (i.e. Pep01-3, Pep04-3, Pep05-3, Pep08-3, Pep09-3 or Pep12-3). The highly homologous peptides Pep12-1, Pep12-2 and Pep12-3 were included as positive controls for detecting cross-reactive immune responses to TGFb-2 and TGFb-3. In FIG. 7A, for each peptide tested, boxplots on the left hand side correspond to responses using the same TGFb-1 peptide, boxplots in the middle correspond to responses using homologous TGFb-2 peptides and boxplots on the right hand side correspond to responses using homologous TGFb-3 peptides.
FIG. 8. IFNγ ELISPOT to identify TGFb-1-selective immune responses. The same data shown in FIG. 7 were plotted to show responses for individual peptides and donors. […] Significant responses (*) were defined by a Fisher exact P value<0.01, a ratio of peptide to control spots>2, and background subtracted spots>25.
as §1, §2

Test [3] has as its system splenocytes loaded with the assay peptide (SLP1_Ib). The test can be described thus: In vivo cytotoxicity assay. The conditions noted are these: analysed 18 hours after i.v. injection of labeled splenocytes. Details: species or system mouse. As to the method:
FIG. 11. TGFb-1 vaccine promotes targeted in vivo cell killing. An in vivo cytotoxicity assay was used to compare cell killing in mice vaccinated with SLP1 versus the class I epitope SLP1_Ib (SIYMFFNT). Vaccinated mice (duplicates) were injected with differentially labeled splenocytes loaded with the assay peptide (SLP1_Ib) or a control peptide. Cell killing was determined by comparing the recovery of the splenocytes using control-peptide-loaded splenocytes as an internal control for cell recovery. OVA peptide was included as a positive control.
The in vivo cytotoxicity assay was performed by injecting peptide-loaded splenocytes from untreated donor mice into vaccinated mice. Freshly isolated splenocytes were incubated with 5 μM peptide in media (RPMI, 10% Fetal Bovine Serum) for 1 hour at 37 C. Splencoytes were loaded with assay peptide (SLP1_Ib) or control peptide (P53, AIYKKSQHM) separately. […] Cell killing was analyzed after 18 hours by isolating splenocytes from injected mice and comparing the recovery of FarRed and Violet labeled cells by flow cytometry. Specific killing of assay pulsed splenocytes was calculated as follows: […]

The test system of test [4] is mice. The test can be described thus: IFNγ ELISPOT assay of immune responses in mice vaccinated with synthetic long peptides. Format: in vivo, mouse. The conditions noted are these: mice vaccinated with SLP; recall with minimal class I / class II peptides. As to the method: FIG. 9. TGFb-1 vaccine induces robust immune responses. Mice were vaccinated with two different synthetic long peptides (SLPs) and immune responses were analyzed by IFNγ ELISPOT assay. ELISPOT responses for individual mice are shown. Results for control peptides are clearly indicated.
For the MC38 tumor study, female C56/BL6 mice (Tacomic) were vaccinated with 100 μg of peptide (SEQ ID: 31 or SEQ ID NO: 34) prepared in DMSO and diluted in water to a total volume of 50 μl (per injection) before mixing with an equal volume of Montanide ISA51 VG ST adjuvant to form an emulsion. The vaccine formulation was administered subcutaneously (s.c.) at the tail base on Days 0, 7, and 14. MC38 tumor cells (2e5 per injection) were administered s.c. in the flank on day 0. Every 3 to 4 days, tumors were measured with a Vernier caliper and the tumor volume was calculated using the formula: V=L×W2/2, where V is tumor volume, L is the length of tumor (longer axis), and W is the width of the tumor (shorter axis).
A murine TGFb-1 vaccine was developed based on synthetic long peptides (SLPs) encoding predicted MHC class I and class II epitopes (SEQ ID NOs: 31-36 in Table 1 below). Pre-clinical studies of anti-TGFb therapies often fail to show any impact on tumor growth when administered as a monotherapy.

For “LMVETHNEIYDKFKQSTHSIYMFFNTSEL [Pep02-1, polypeptide fragment of human TGFb-1, positions 112-140]”, in test [1], the “Positive Donors (out of 14)” value is 6 and the “Median Spots” value was determined as 28.
For “YMFFNTSELREAVPEPVLLSRAELRLLRLKLKVEQHVE [Pep10-1, polypeptide fragment of human TGFb-1, positions 132-169]”, in test [1], the “Positive Donors (out of 14)” value stood at 5 and the “Median Spots” value is reported as 8.
As to “DMPPFFPSENAIPPTFYRPYFRIVREDVSAMEKNASNLV (DMPPFFPSENAIPPTFYRPYFRIVRFDVSAMEKNASNLV) [Pep01-2, homologous polypeptide fragment of human TGFb-2, positions 107-145, reference compound]”, the “TGFb-1 selectivity / cross-reactivity of IFNγ ELISPOT immune response to homologous TGFb-2 and TGFb-3 peptides” value in test [2] was “observed only once”. For the same sequence, the “Number of other donors in which cross reactivity was not observed” value in test [2] (donors tested with Pep01-1/Pep01-2 peptide combination) is on record as 7.
On to “LMVETHNEIYDKFKQSTHSIYMFF [Pep03-1, polypeptide fragment of human TGFb-1, positions 112-135]”, for which, in test [1], the “Positive Donors (out of 14)” value is 6 and the “Median Spots” value is recorded as 16.
For the sequence KDISHSIYMFFNTSDIREAVPEPPL [SLP1], the “Cytotoxic activity (specific killing) toward SLP1_Ib-loaded splenocytes in vaccinated mice” value in test [3] was “results in cytotoxic activity toward cells loaded with the class I peptide antigen SLP1_Ib”. The “Immune response by IFNγ ELISPOT in vaccinated mice” value in test [4] was “recognition of minimal peptides encoding class I and class II epitopes”.
As to “YDKFKQSTHSIYMFFNTSEL [Pep05-1, polypeptide fragment of human TGFb-1, positions 121-140]”, in test [1], the “Positive Donors (out of 14)” value is given as 7 and the “Median Spots” value was 23. Also, in test [2], the “TGFb-1 selectivity / cross-reactivity of IFNγ ELISPOT immune response to homologous TGFb-2 and TGFb-3 peptides” value was “strong and frequent immune responses in healthy donors that are selective to TGFb-1”.
On to “SIYMFFNT [SLP1_Ib, TGFb-1 positions 130-137]”, for which the “Cytotoxic activity (specific killing) toward SLP1_Ib-loaded splenocytes in vaccinated mice” value in test [3] is recorded as “cytotoxic activity was higher”.
On to “DSRDNTLQVDINGFTTGRRGDLATIHGMNRPFLLL [Pep06-1, polypeptide fragment of human TGFb-1, positions 226-260]”, for which, in test [1], the “Positive Donors (out of 14)” value worked out at 5 and the “Median Spots” value is on record as 25.
For “VKRKRIEAIRGQILSKLRLA [Pep12-1, reference compound]”, the “TGFb-1 selectivity / cross-reactivity of IFNγ ELISPOT immune response to homologous TGFb-2 and TGFb-3 peptides” value in test [2] was “induced immune responses that cross-reacted with homologous TGFb-2 and TGFb-3 peptides”; in test [2] (listed as Pep12) it was “displayed cross-reactivity in all donors that exhibited significant responses to the TGFb-1 homolog”.
As for “YDKFKQSTHSIYMFFNTSELREAVPEPVLLS [Pep04-1, polypeptide fragment of human TGFb-1, positions 121-151]”, in test [1], the “Positive Donors (out of 14)” value is on record as 7 and the “Median Spots” value is recorded as 34. For the same sequence, the “TGFb-1 selectivity / cross-reactivity of IFNγ ELISPOT immune response to homologous TGFb-2 and TGFb-3 peptides” value in test [2] is “strong and frequent immune responses in healthy donors that are selective to TGFb-1”.
Regarding “REAVPEPVLLSRAELRLLRL [Pep09-1, polypeptide fragment of human TGFb-1, positions 141-160]”, in test [1], the “Positive Donors (out of 14)” value came out at 7 and the “Median Spots” value is recorded as 37. In addition, the “TGFb-1 selectivity / cross-reactivity of IFNγ ELISPOT immune response to homologous TGFb-2 and TGFb-3 peptides” value in test [2] is “strong and frequent immune responses in healthy donors that are selective to TGFb-1”.
“REAVPEPVLLSRAELRLLRLKLKVEQHVE [Pep11-1, polypeptide fragment of human TGFb-1, positions 141-169]”: in test [1], the “Positive Donors (out of 14)” value is listed as 5 and the “Median Spots” value came out at 14.
Consider “LMVETHNEIYDKFKQSTHSIYMFFNTSELREAVPEPVLLS [Pep01-1, polypeptide fragment of human TGFb-1, positions 112-151]”, for which, in test [1], the “Positive Donors (out of 14)” value was 9 and the “Median Spots” value is reported as 67. The “TGFb-1 selectivity / cross-reactivity of IFNγ ELISPOT immune response to homologous TGFb-2 and TGFb-3 peptides” value in test [2] was “strong and frequent immune responses in healthy donors that are selective to TGFb-1”.
With “DINGFTTGRRGDLATIHGMNRPFLLL [Pep07-1, polypeptide fragment of human TGFb-1, positions 235-260]”, in test [1], the “Positive Donors (out of 14)” value was 5 and the “Median Spots” value is listed as 12.
As for “TGRRGDLATIHGMNRPFLLL [Pep08-1, polypeptide fragment of human TGFb-1, positions 241-260]”, in test [1], the “Positive Donors (out of 14)” value stood at 7 and the “Median Spots” value was 22. In addition, in test [2], the “TGFb-1 selectivity / cross-reactivity of IFNγ ELISPOT immune response to homologous TGFb-2 and TGFb-3 peptides” value is “strong and frequent immune responses in healthy donors that are selective to TGFb-1”.
